In patent publication US8658167B2, “Methods and compositions for treatment and diagnosis of fibrosis, tumor invasion, angiogenesis, and metastasis” (Gilead Biologics, Inc., priority 2007, dated 2014):
Values belong to the compound of their own block, whether it stands above or below them.

What was measured:
[1] = test system: LOXL2; assay: Mode of inhibition of LOXL2; type: biochemical; conditions: 1,5-diaminopentane substrate; FIG. 21
Protocol: Mode of inhibition of antibodies against LOXL2 was conducted using the model described below. In these experiments, the dependence of the steady state rate on the concentration of 1,5-diaminopentane was monitored under increasing concentrations of antibody. The purpose was to assess whether the Km for substrate, kcat or both change in the presence of antibody. Parameter α describes the effect of the compound on substrate affinity. An α value equal to one describes a situation in which the compound binds equally well the free enzyme and the enzyme-substrate complex (non-competitive inhibition like). Values less than one describe an interaction in which the compound binds the enzyme-substrate complex (uncompetitive inhibition like). Values greater than one correspond to the compound binding the free enzyme better than the enzyme-substrate complex (competitive inhibition like). The β value describes the effect of the modulator on the rate of the enzyme. Inhibitors have values less than one (for a complete inhibitor β=0) and activators have values greater than one. […] The steady state rates were determined from the slope of the fluorescence response as a function of time as described above. Data was plotted as the dependence of steady state rate on the concentration of substrate (1,5-diaminopentane) at several fixed concentrations of antibody and analyzed with GraFit.

[2] = target: T1, LOX (Mus musculus, UniProt P28301); assay: Surface-associated LOX activity in 3T3 cells (HRP-coupled Amplex Ultra Red assay, 1,5-diaminopentane substrate); type: cell-based; conditions: BAPN 1 mM; LOX mAb 15 ug/ml; LOX siRNA 100 nM, day seven after transfection; FIG. 15
T1 construct: Specific LOX activity was evident on the cell surface of NIH3T3 cells; endogenous in cells; host or cells: NIH 3T3
T1 sequence (P28301 163-411): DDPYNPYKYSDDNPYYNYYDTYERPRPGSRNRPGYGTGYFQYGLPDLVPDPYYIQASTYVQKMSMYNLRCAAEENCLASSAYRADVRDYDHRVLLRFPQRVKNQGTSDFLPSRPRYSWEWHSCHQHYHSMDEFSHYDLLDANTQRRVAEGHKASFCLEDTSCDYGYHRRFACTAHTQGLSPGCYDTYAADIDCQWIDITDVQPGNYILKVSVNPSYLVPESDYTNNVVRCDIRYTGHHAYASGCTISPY
Protocol: Specific LOX activity was evident on the cell surface of NIH3T3 cells. Activity was quantitated with a horseradish peroxidase-coupled fluorescent assay method based on the oxidation of Amplex Ultra Red with a 1,5-diaminopentane substrate. LOX activity was inhibited with the irreversible small molecule inhibitor, BAPN, with a monoclonal antibody raised against a LOX peptide, and with a siRNA oligonucleotide specifically targeting LOX mRNA. (FIG. 15)
NIH 3T3 cells were transfected with 100 nM of LOX siRNA (Invitrogen Stealth, HSS106117, […] (SEQ ID NO:20)) or non-targeting control. 25 ul of Dharmafect® #3 (Dharmacon) was mixed with 1 ml of OPTIMEM I® (Invitrogen) and sat for 5 minutes at room temperature. 50 ul of 20 uM siRNA was then added, mixed and the transfection mix was incubated at room temperature for 15 minutes. 1 ml of transfection mix was then added to a trypsinized cell suspension in growth media containing 1×10^6 cells and the resulting mixture was plated into a 10 cm^2 culture dish. Six days after transfection, cells were trypsinized and re-plated into 96 well plate format at 50,000 cells/well. […] The plate was read in a Molecular Devices M5 plate reader at 37° C. The plate reader was configured to read fluorescence (ex=544 nm, em=590 nm) in kinetics mode for approximately 2.5 hours.

[3] = test system: MDA-MB-231; assay: Drug sensitivity assays with LOX/LOXL inhibition (CellTiter Glo viability); type: cell-based, human
Protocol: After 5 days of continuous exposure, cultures were rinsed and live cell number was determined using CellTiter Glo™ (Promega, San Luis Obispo, Calif.) according to manufacturer instructions. […] (FIGS. 36, 37, 38)
For siRNA drug sensitivity studies, cells were transiently transfected with […] LOX, LOXL2, or non-targeting Stealth Select™ RNAi validated oligos using the Dharmafect transfection reagent according to manufacturer instructions (Thermo Scientific, Lafayette, Colo.) 24 hrs prior to drug exposure. Knock down levels following drug exposure were verified with quantitative PCR. Stable shRNA cell lines were generated using the MISSION© shRNA Lentiviral System (Sigma-Aldrich, St. Louis, Mo.).

SMILES: N#CCCN [BAPN, β-aminoproprionitrile]
mode of inhibition of LOXL2 [1]: competitive inhibitor | surface-associated LOX activity in 3T3 cells [2]: inhibited

decrease of calculated IC50 ([3]; MDA-MB-231 siLOX, siLOXL2 and siLOX/siLOXL2 double knockdown cell lines vs parent cell line (control), FIG. 39A): 27%-55%
SMILES: COc1cccc2c1C(=O)c1c(O)c3c(c(O)c1C2=O)C[C@@](O)(C(=O)CO)C[C@@H]3O[C@H]1C[C@H](N)[C@H](O)[C@H](C)O1 [doxorubicin]

SMILES: C#Cc1cccc(Nc2ncnc3cc(OCCOC)c(OCCOC)cc23)c1 [erlotinib, Erlotinib]
reduction in cell viability (calculated IC50 compared to control line) ([3]; shLOXL2 knockdown cell line (shLOXL2.195) vs sh control, parental MDA-MB-231, FIG. 36): approximately 7 fold

SMILES: CN(Cc1cnc2nc(N)nc(N)c2n1)c1ccc(C(=O)N[C@@H](CCC(=O)O)C(=O)O)cc1 [methotrexate (MTX), methotrexate]
reduction in viability ([3]; MDA-MB-231 shLOX knockdown cell line vs GFP control, FIG. 37): ~2 fold
